Several values for one entry are separate records, joined by “and”; a condition that tells them apart may be missing. Equal values may be shown once. Read-outs that look alike come from different tables or passages of the source.
Columns and labels:
SET Ribosome [1] = tested on: SET Ribosome
SET Ribosome [2] = assay: Topotecan dose response assay, MCF7 TR Cell Panel; assay type: cell-based, human
[3] = in vivo, po; cited from earlier work
SET Ribosome [4] = assay: Topotecan Modifier Assay on TPA Reference Standard response, HEK293 TR cell lines; assay type: cell-based, human; conditions: HEK293 hTRdm-fLUC#13 and mTRdm-fLUC#45; with 100 nM TPA; 6 hours
[5] = cited from earlier work
LD50 in rats (quoted) = conditions: oral 0.00013 mg/kg/day
SET Ribosome [6] = assay: TPA Reference Standard Response Modifier Assay with ribosome binding translation inhibitors, HEK293 hTRdm-fLUC#13; assay type: cell-based, human; conditions: with 100 nM TPA, 6 hours
[7] = cited from earlier work; remark: listed apart in the source
LD50 in mice (quoted) = conditions: oral 0.000054 mg/kg/day vs mouse LD50
topoisomerase I = target: T1, topoisomerase I (Homo sapiens, UniProt P11387); conditions: cited from earlier work
T1 sequence (P11387 1-765): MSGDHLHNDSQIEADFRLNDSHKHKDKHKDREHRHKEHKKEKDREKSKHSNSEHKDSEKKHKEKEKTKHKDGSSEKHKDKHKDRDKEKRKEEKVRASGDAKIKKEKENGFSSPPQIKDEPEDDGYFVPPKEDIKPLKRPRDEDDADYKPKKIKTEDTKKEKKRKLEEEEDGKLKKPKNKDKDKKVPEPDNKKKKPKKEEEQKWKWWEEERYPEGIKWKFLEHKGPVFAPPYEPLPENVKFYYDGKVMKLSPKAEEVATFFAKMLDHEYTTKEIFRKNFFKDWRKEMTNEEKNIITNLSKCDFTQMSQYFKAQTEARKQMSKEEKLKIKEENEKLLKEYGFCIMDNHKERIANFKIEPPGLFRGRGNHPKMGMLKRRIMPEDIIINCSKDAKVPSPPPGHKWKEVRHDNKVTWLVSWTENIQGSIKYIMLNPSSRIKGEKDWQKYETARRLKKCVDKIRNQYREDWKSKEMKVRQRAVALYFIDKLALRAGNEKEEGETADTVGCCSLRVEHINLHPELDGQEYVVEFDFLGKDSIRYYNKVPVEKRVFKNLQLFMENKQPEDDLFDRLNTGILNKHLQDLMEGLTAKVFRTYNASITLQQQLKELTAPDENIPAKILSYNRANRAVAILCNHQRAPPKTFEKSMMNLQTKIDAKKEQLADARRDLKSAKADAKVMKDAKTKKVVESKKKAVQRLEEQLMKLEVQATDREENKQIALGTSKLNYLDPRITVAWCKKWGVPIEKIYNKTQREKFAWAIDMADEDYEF

PKC = conditions: cited from earlier work

## CC[C@@]1(O)C(=O)OCc2c1cc1n(c2=O)Cc2cc3c(CN(C)C)c(O)ccc3nc2-1.Cl [Topotecan, (S)-10-[(dimethylamino)methyl]-4-ethyl-4,9-dihydroxy-1H-pyrano[3′,4′:6,7]indolizino[1,2-b]quinoline-3,14(4H,12H)-dione monohydrochloride]
SET Ribosome [1]; High dose (HD) 10 uM
  SET Response: Antagonist
SET Ribosome [1]; Low dose (LD): Calon 1 uM, Topotecan 100 nM
  SET Response: Agonist
SET Ribosome [2]; MCF7 TR Cell Panel
  IC100: > 5 µM
  dose of maximal SET response: 10 nM
  dose range of SET Agonist activity: 2 to 100 nM
SET Ribosome [2]; MCF7 TR Class 3 and Class 4 lines, 6 hours
  concentrations giving complete SET Ribosome block: ≥ 5 µM
[3]
  oral bioavailability: ~40%
  time of peak plasma concentration post-administration: 1 to 2 h
SET Ribosome [4]
  doses completely blocking SET Ribosome activity: > 5 µM

## CC[C@H]1CN2CCc3cc(OC)c(OC)cc3[C@@H]2C[C@@H]1C[C@H]1NCCc2cc(OC)c(OC)cc21 [emetine, (2S, 3R, 11bS)-2-{{(1R)-6,7-dimethoxy-1,2,3,4-tetrahydroisoquinolin-1-yl]methyl}-3-ethyl-9,10-dimethoxy-2,3,4,6,7,11b-hexahydro-1H-pyrido[2,1-a] isoquinoline]
[5]; subcutaneous
  LD50: 58 µM
LD50 in rats (quoted)
  factor by which the IC100 dose is lower than the rat LD50: > 5,231 ×
SET Ribosome [6]; Homo sapiens, HEK293, read-out: IC50, SET ribosome inhibition
  IC50: 175 nM
SET Ribosome [6]
  IC100 (100% SET Ribosome inhibition): 2.5 µM and 2.5 to 10 µM
[7]; intravenous
  LD50: 5 µM
[7]; oral
  LD50: 35 µM

## COc1ccc(C[C@H]2NC[C@H](O)[C@H]2OC(C)=O)cc1 [anisomycin, (2R,3S,4S)-4-hydroxy-2-(4-methoxybenzyl)-pyrrolidin-3-yl acetate]
LD50 in mice (quoted)
  factor by which the IC100 dose is lower than a toxic concentration: > 14,000 ×
[5]; route not stated
  LD50: 75 to 200 mg/kg

## CCc1c2c(nc3ccc(O)cc13)-c1cc3c(c(=O)n1C2)COC(=O)[C@]3(O)CC [SN-38, 7-ethyl-10-hydroxy-camptothecin]
Topoisomerase I
  potency relative to irinotecan: 1000 X

## Bryostatin 2
PKC
  enzyme binding constant relative to bryostatin 1: 10 times
